Test results as given in paper PMC11672137, “High-Affinity Lectin Ligands Enable the Detection of Pathogenic Pseudomonas aeruginosa Biofilms: Implications for Diagnostics and Therapy” (JACS Au, 2024).

Legend:
[1] = target: T1, LecA (Pseudomonas aeruginosa, UniProt Q05097); assay: Direct binding assay based on fluorescence polarization, titration with LecA
T1 construct: made in house
Description: The binding affinities of imaging probes 2–4 for LecA were determined using a direct binding assay based on fluorescence polarization (FP).[47]
(A, C) Monovalent LecA imaging probes 2–4 based on phenyl β-D-galactoside (1) were titrated with LecA. […] (E) Xyloside-fluorescein conjugate (8) and azido fluorescein (9) served as negative controls in titrations with LecA and LecB, respectively. Averages and standard deviations were determined from at least three independent titrations of technical triplicates each.
Direct binding affinity determination of LecA and LecB imaging probes was performed with direct titration of protein and imaging probes in TBS/Ca2+ buffer. Protein dilution series was prepared in 96 well plates and 10 µL of each dilution in triplicates were mixed with 10 µL of fluorescent compound (20 nM) in 384-well microtiter plates (Greiner Bio-One, Germany, cat no 781900). The plates were centrifuged (1 min, 500 g), sealed and incubated for 2 h in dark wet chamber under gentle shaking. Fluorescence was measured on a PheraStar FS plate reader (BMG Labtech GmbH, Germany) with excitation filters at 485 nm and emission filters at 535 nm. The data were analysed with MARS Data Analysis Software (BMG Labtech GmbH, Germany) to calculate Kd values.

[2] = test system: P. aeruginosa PAO1 biofilm aggregates; assay: In vitro biofilm staining under static conditions (CLSM); assay type: cell-based, Pseudomonas aeruginosa; settings: 10 μM probe
Description: The ability of LecA- and LecB-targeting probes to image P. aeruginosa biofilms was evaluated in vitro. P. aeruginosa PAO1, constitutively expressing mCherry from plasmid pMP7605,[56] was cultivated in microtiter plates under shaking conditions to form biofilm aggregates, as reported previously.[43] Fluorescein-carbohydrate conjugates were added to the bacterial culture to reach a final concentration of 10 μM and biofilms were analyzed by confocal laser scanning microscopy (CLSM) under static conditions (Figures 2 and S4). […] To our surprise, the intended negative control xyloside 8 also stained the P. aeruginosa biofilms (Figures 2C and S4). In all cases, the green signal originating from the fluorescein conjugates was not homogeneously spread over the entire structure of the biofilm aggregates, but a certain heterogeneity was observed across biofilm regions as bright spots. Further, the intensity of staining varied between replicates (see the Supporting Information for individual experiments). […] Instead, only a very faint green shadow was detected for 9 indicating its suitability as a negative control. Thus, the observed biofilm staining with imaging probes 2, 3, 6, 7 and also xyloside 8 was carbohydrate dependent and while 2, 3 and 6, 7 are ligands of LecA and LecB, respectively, the molecular mechanism of xyloside 8 remains elusive.
One representative image of stained aggregates is shown. […] Scale bar = 50 μm.
P. aeruginosa PAO1 expressing the red fluorescent protein mCherry (pMP7605)23 was selected for this study. For this, P. aeruginosa PAO1 (DSM 19880, Braunschweig, Germany) was transformed with the mCherry plasmid (pMP7605).23 Bacteria were stored at -80 °C. For experimental use, bacteria were streaked on lysogeny broth (LB) agar (1% tryptone, 1% NaCl, 0,5% yeast extract, 1.3% agar) containing 60 µg/mL gentamicin (Gm) and incubated at 37 °C overnight. For liquid cultures, bacterial colonies were transferred from LB agar to 10 mL LB (1% tryptone, 1% NaCl, 0,5% yeast extract) containing 60 µg/mL Gm and incubated at 37 °C and 180 rpm overnight. For exponential growth, 10 mL of LB containing 60 µg/mL Gm were inoculated with P. aeruginosa PAO1 mCherry (pMP7605)23 using an overnight liquid culture […]
In vitro biofilm staining under static conditions
Biofilm staining experiments were performed in analogy to Wagner et al. with P. aeruginosa PAO1 pMP7605 (Figure S4).23,24 Bacterial overnight cultures were inoculated from single colonies in 5 mL LB supplemented with gentamicin (120 µg/mL) and grown at 37 °C and 180 rpm. The bacterial overnight cultures were then diluted to OD600 of 0.02 with LB and 500 µL of culture per well were transferred to 24-well plate (24CG, Art. No. 5231 or 24FC, Art. No. 3231). The biofilm was grown under shaking conditions (180 rpm) at 37 °C for 20–24 h. Biofilm aggregates were visualized using a confocal laser scanning microscope (Leica TCS Sp8 CLSM) using a 25× numerical-aperture water objective. Z-stacks (463 x 463 μm) were recorded every 2 μm for mCherry (ex.: 561 nm, red) and for fluorescein containing imaging compounds (ex.: 488 nm, green). […]
Maximum Intensity Projections (contrast range automatically adjusted by Imaris). Only one staining experiment was carried out for imaging probes 4 and S26, all other fluorescein conjugates were analyzed in at least three independent experiments.

[3] = test system: P. aeruginosa PAO1 biofilms; assay: In vitro biofilm staining under flow conditions, compound supplementation to the medium; assay type: cell-based, Pseudomonas aeruginosa; settings: for Biofilm staining after accumulation: 500 nM in medium, 4 h, fluorescence microscope; for Biofilm staining by CLSM after accumulation: 500 nM, 4 h accumulation, without washing
Description: P. aeruginosa biofilms were grown under flow conditions and observed by fluorescence microscopy in analogy to Ghanbari et al.[66] To this end, P. aeruginosa PAO1 expressing the red fluorescent protein mCherry[56] was diluted to an OD600 nm of 0.1 and injected into the microfluidics device. After a 30-min settling period, biofilms were grown under a constant laminar flow rate of 3 mL/h per channel. Following 48 h of incubation at 30 °C, dense and mature P. aeruginosa PAO1 biofilms were observed, which were then further used for analysis of the imaging probes.
To circumvent these technical drawbacks, the addition of compounds to the medium reservoir and retention at the biofilm was pursued. Imaging compounds were added to the medium reservoirs at a concentration of 500 nM, which were continuously pumped (3 mL/h) through the flow cell for 4 h. Compound accumulation at mature P. aeruginosa biofilms was immediately analyzed using fluorescence microscopy. Afterwards, the medium was exchanged, and the biofilms were washed for 30 min (3 mL/h, no compound) to monitor the retention (Figure 5). Furthermore, an analysis using CLSM was also performed after 4 h of accumulation without washing (Figures 5 and S22).
Figure 5 Staining of P. aeruginosa PAO1 biofilms grown under flow conditions with compound supplementation to the medium. Biofilm staining with (A) fluorescein divalent probe 17, (B) fluorescein control 24, (C) BODIPY divalent probe 19, and (D) BDP FL azide control 18 was monitored after 4 h of accumulation under constant flow (3 mL/h) of LB media containing 500 nM of respective compound. Retention of imaging compounds is shown after a subsequent wash period for 30 min with medium (3 mL/h, no compound). Images were recorded by using a fluorescence microscope. CLSM was performed for (E) BODIPY divalent probe 19 and the control (F) BDP FL azide 18 after 4 h of accumulation. Green signal originates from fluorescently labeled probes 17 and 19 and controls 24 and 18. P. aeruginosa constitutively expressing mCherry from pMP7605^56 is shown in red. Z-Stack size, 2 μm. Scale bar = 50 μm.
In vitro biofilm staining under flow conditions
The flow cell experiment was set up in analogy to Ghanbari et al. and in this study, optimized and established for biofilm staining.25 In principle, the experiment is based on an inlet connected to a medium source, a peristaltic pump providing constant medium flow, a flow chamber enabling analysis of bacterial growth and an outlet (waste container/bottle).
The medium used in the flow system was LB diluted by factor 5 containing 60 µg/mL
Gm. Silicone tubings 1.6 mm (ibidi, Germany) were used transporting medium from inlet to the peristaltic pump (Watson-Marlow Fluid Technology Solutions). Stopper hoses (CarlRoth) placed in peristaltic pump were coupled to silicone tubes via connectors (ibidi, Germany).
Stopper hoses are connected to bubble traps (obtained by Claus Sternberg, DTU Copenhagen) via 0.8 mm silicone tubing (ibidi, Germany). Bubble traps were used to remove air from the medium flow and to avoid biofilm disruption. Downstream from the bubble traps, the flow cell (μ-Slide VI 0.4 ibiTreat, ibidi, Germany) was placed into the system and connected to 1.6 mm silicone tubes (ibidi, Germany). The outlet is leading the medium from flow chamber to a waste […]
In order to inoculate the flow cell with P. aeruginosa PAO1 mCherry (pMP7605)23 the silicone tubes upstream and downstream of the flow chamber were pinched off by using commercial plastic clamps. The medium flow was stopped and the flow cell was inoculated by injecting 300 µL of the bacterial suspension (OD600nm of 0.1) into the silicone tubing upstream of the flow chamber. For this, a cannula (0.30 x 12 mm, Sterican) was used. The injection point was sealed with silicone glue. After bacterial settling time of 30 min, the flow was started again and clamps were removed. Growth temperature was regulated by using a heat system (ibidi, […]
Germany). […]

[4] = test system: P. aeruginosa PAO (DSM 1707) lung infection; assay: Optical in vivo imaging and ex situ organ analysis in acute P. aeruginosa airway infection model; parameters: species or system mice
Description: Encouraged by the high affinity of the imaging probes and their ability to stain P. aeruginosa biofilms in vitro, we further investigated the compounds in vivo using an acute P. aeruginosa airway infection model in mice. Intratracheal administration of P. aeruginosa PAO (DSM 1707) results in a local infection that is mainly restricted to the lungs. With the infection dose of 2 × 10^6 cfu/50 μL chosen here, the number of bacteria peaks at 6 h after infection before the host immune system clears the bacteria.[70]
Then, imaging probes, divalent LecA-targeting probe 21, LecB-targeting probe 22 and the control sulfo-Cy7 (free acid), were administered intravenously to the tail vein 2 h post infection. […] This accumulation in the lungs was then confirmed by a subsequent ex vivo analysis of the organs.
Figure 6 Optical in vivo imaging in mice and ex situ analysis of organs with P. aeruginosa PAO acute lung infection. In vivo imaging of mice with P. aeruginosa intratracheal infection (right) or uninfected control mice (left) after intravenous administration of imaging probes 2 h post infection: (A) 50 nmol/20 g divalent LecA probe 21 or (B) 100 nmol/20 g LecB probe 22. Then, explanted lungs were analyzed for fluorescence intensity, shown as a false color scale in (C) divalent LecA probe 21 (left: uninfected, right: infected) and (D) LecB probe 22 (left: uninfected; middle: uninfected control without dye; right: infected). (E) Quantification of the average radiant efficiency of the divalent LecA ligand 21 and the control sulfo-Cy7 free acid in the lungs of uninfected and infected mice. Duplicate data points and the mean are depicted. (F) Average radiant efficiency was quantified for the LecB imaging probe 22 in lungs of infected and uninfected mice. In addition, (G) further mouse organs were explanted after i.v. injection of 21 (50 nmol/20 g) or control sulfo-Cy7 free acid (50 nmol/20 g) and imaged. Organs of uninfected (left), infected (right) mice, and uninfected mice without any dye (upper middle on the sulfo-Cy7 free acid rows) were compared. Fluorescence intensities are shown as false color pictures. […]
Lung infection model and in vivo imaging of P. aeruginosa
C57BL/6J and albino (Tyrc2J) C57BL/6 mice were bred and housed at the Central Animal Facility, Hannover Medical School, Germany. Animal experiments were performed with permission number: 33.9-42502-04-16/2072 from the Lower Saxony State Office for Consumer Protection and Food Safety (LAVES), Germany. Mice were anesthetized with 3% isoflurane (CP Pharma) and infected intratracheally with 2x10^6 cfu/50 µL of P. aeruginosa PAO (DSM1707, Braunschweig, Germany) as described previously.26
50 – 100 nmol sulfo-Cyanine7-compound (divalent LecA probe 21; LecB probe 22; control sulfoCy7 free acid, CAS no.: 2104632-30-4, Lumiprobe; control sulfoCy7 azide, 20, Lumiprobe) per 20 g mouse was injected intravenously 2 h after infection. Optical imaging was performed 4 – 7 h after compound administration. Mice were anesthetized with 3% isoflurane […]
an in vivo imaging system (IVIS SpectrumCT, PerkinElmer). Subsequently mice were euthanized and organs were imaged (675/760 nm) ex situ individually. To enhance Cyanine7 specific fluorescent signal spectral unmixing was performed on in vivo images using LivingImage 4.7 (PerkinElmer). […]

T1 sequence (Q05097 whole entry): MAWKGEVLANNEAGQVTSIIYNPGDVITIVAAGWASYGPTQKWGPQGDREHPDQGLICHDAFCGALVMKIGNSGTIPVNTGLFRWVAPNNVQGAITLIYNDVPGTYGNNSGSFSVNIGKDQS

Row | SMILES | Kd [1] | Staining of biofilm aggregates [2] | Biofilm staining after accumulation ([3]; 3 mL/h) | Biofilm staining by CLSM after accumulation [3] | further results
1 | O=C1OC2(c3ccc(O)cc3Oc3cc(O)ccc32)c2ccc(NC(=S)NCCOCCOCCOCCn3cc(COc4ccc(S[C@@H]5O[C@H](CO)[C@H](O)[C@H](O)[C@H]5O)cc4)nn3)cc21 [compound 4] | 8.5 ± 0.8 µM |  |  |  | 
2 | O=C1OC2(c3ccc(O)cc3Oc3cc(O)ccc32)c2ccc(NC(=S)NCCOCCOCCOCCn3cc(CNc4ccc(S[C@@H]5O[C@H](CO)[C@H](O)[C@H](O)[C@H]5O)cc4)nn3)cc21 [compound 3] | 11.6 ± 0.7 µM | showed staining |  |  | 
3 | CC1=CC(C)=[N+]2C1=Cc1ccc(CCC(=O)NCCCN=[N+]=[N-])n1[B-]2(F)F [compound 18, BDP FL azide, reference compound] |  |  | did not show any enrichment | no signal was observed | 
4 | C[C@@H]1O[C@H](CNS(=O)(=O)c2ccc(-c3cn(CCCNC(=O)CCCCC[N+]4=C(/C=C/C5=CC(=C/C=C6/N(C)c7ccc(S(=O)(=O)O)cc7C6(C)C)/CCC5)C(C)(C)c5cc(S(=O)(=O)[O-])ccc54)nn3)s2)[C@@H](O)[C@H](O)[C@@H]1O [compound 22] |  |  |  |  | Average fluorescence radiant efficiency of explanted lungs ([4]; ex vivo analysis of organs, infected vs uninfected mice): elevated compared with uninfected mice; Cyanine7 signal in lung area, optical in vivo imaging ([4]; i.v. 2 h post infection, infected vs uninfected mice, 21 50 nmol/20 g, 22 100 nmol/20 g): elevated Cyanine7 signals in the area of the lung of infected mice compared to uninfected mice; Fluorescence ex vivo in lungs of uninfected animals compared to control sulfo-Cyanine7 (free acid) ([4]; uninfected mice, ex vivo quantification): a certain accumulation in the lungs of uninfected animals
5 | O=C1OC2(c3ccc(O)cc3Oc3cc(O)ccc32)c2ccc(NC(=S)NCCOCCOCCOCCn3cc(CNc4cccc(S[C@@H]5O[C@H](CO)[C@H](O)[C@H](O)[C@H]5O)c4)nn3)cc21 [compound 2] | 5.3 ± 0.7 µM | showed staining |  |  | 
6 | CC1=CC(C)=[N+]2C1=Cc1ccc(CCC(=O)NCCCn3cc(CCN(Cc4ccc(NC(=O)CCc5ccc(O[C@@H]6O[C@H](CO)[C@H](O)[C@H](O)[C@H]6O)cc5)cc4)Cc4ccc(NC(=O)CCc5ccc(O[C@@H]6O[C@H](CO)[C@H](O)[C@H](O)[C@H]6O)cc5)cc4)nn3)n1[B-]2(F)F [compound 19] |  |  | strong staining was observed | clear and strong staining predominantly at the periphery of large biofilm aggregates | Retention at biofilm after wash ([3]; after 4 h accumulation at 500 nM, 30 min wash, 3 mL/h, no compound): the strong signal was still observed
